Experimental data published in doi:10.1101/2025.09.11.675743v1 (biorxiv, 2025).

Legend:
[1] = molecular target: T1, recombinant human TREM2 protein (Homo sapiens, UniProt Q9NZC2); assay: microscale thermophoresis; type: binding
T1 sequence (Q9NZC2 19-174 limits assumed): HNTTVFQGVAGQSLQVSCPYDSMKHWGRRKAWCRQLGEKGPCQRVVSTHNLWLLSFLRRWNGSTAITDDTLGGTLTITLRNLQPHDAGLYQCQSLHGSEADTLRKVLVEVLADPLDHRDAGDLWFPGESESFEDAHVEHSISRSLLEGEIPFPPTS

hERG = hERG (Homo sapiens, UniProt Q12809); assay: hERG safety counterscreen; type: cell-based
Chain of hERG (Q12809 whole entry): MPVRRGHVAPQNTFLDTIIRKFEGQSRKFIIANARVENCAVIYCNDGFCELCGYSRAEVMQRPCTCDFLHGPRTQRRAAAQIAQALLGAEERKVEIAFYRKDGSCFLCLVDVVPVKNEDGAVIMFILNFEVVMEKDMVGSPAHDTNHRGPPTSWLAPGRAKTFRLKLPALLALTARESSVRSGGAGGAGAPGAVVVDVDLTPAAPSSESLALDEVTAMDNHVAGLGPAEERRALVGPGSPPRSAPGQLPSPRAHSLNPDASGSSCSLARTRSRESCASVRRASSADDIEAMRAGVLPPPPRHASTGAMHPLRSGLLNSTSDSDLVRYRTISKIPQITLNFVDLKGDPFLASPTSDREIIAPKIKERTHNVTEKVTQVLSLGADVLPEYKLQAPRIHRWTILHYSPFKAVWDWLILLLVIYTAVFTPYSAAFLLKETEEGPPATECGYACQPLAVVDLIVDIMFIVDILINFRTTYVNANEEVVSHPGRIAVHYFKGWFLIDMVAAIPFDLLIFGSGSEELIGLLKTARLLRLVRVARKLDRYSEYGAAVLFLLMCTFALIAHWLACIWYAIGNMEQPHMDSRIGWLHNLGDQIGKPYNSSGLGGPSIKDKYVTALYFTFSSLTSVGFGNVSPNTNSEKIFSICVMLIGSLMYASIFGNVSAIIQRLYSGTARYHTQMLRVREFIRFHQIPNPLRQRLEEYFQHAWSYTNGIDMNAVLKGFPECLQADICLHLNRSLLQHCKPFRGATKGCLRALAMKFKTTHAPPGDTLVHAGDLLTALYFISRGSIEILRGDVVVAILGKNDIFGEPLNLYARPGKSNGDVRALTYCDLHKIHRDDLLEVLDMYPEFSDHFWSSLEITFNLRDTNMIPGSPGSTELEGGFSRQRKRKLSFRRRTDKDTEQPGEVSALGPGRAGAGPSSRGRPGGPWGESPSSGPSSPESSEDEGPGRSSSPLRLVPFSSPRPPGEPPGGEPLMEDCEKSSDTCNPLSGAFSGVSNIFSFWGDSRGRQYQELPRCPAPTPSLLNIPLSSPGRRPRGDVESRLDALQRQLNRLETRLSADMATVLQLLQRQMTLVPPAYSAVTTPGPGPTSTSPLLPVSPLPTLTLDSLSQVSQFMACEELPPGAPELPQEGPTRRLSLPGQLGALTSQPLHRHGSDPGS

Row | Structure (SMILES) | Kd [1] [nM] | IC50 (hERG) [nM]
1 | c1ccc(CCNc2nc(-c3c[nH]c4ccccc34)cs2)cc1 [T2M-010] | 830 ± 100 | > 60000
2 | CNc1nc(-c2c[nH]c3ccccc23)cs1 [T2M-016] | 2440 ± 300 | –

Second part, led by results:

Row | Kd [1] [nM] | Structure (SMILES) | IC50 (hERG) [nM]
3 | 28900 ± 1740 | c1ccc(Nc2nc(-c3c[nH]c4ccccc34)cs2)nc1 [T2K-014] | –
4 | 50800 ± 3740 | c1ccc(Nc2nc(-c3c[nH]c4ccccc34)cs2)cc1 [T2M-002] | –
5 | 1350 ± 160 | c1ccc2c(-c3csc(NC4CC4)n3)c[nH]c2c1 [T2M-003] | –
